PubChem BioAssay AID330 (DTP/NCI, 2004)
Several values for one entry are separate records, joined by “and”; a condition that tells them apart may be missing. Equal entries are not always repeated. Inconclusive results and toxic doses are left out.

System: P388 leukemia ip, CD2F1 mice, survival T/C
Test: NCI In Vivo Anticancer Drug Screen. Data for tumor model P388 Leukemia (intraperitoneal) in CD2F1 (CDF1) mice
Conditions: endpoint: median survival time, higher = longer survival
In short: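 Mice carrying the transplanted tumor received test compound or vehicle. Survival was recorded in each group, and the value is the treated-group measurement divided by that of the vehicle-treated control group.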

[1] = dose: 50.0 mg/kg/injection, schedule: Q01DX005 (ip), vehicle: saline with Tween-80
[2] = dose: 100.0 mg/kg/injection, schedule: Q01DX005 (ip), vehicle: saline with Tween-80
[3] = dose: 100.0 mg/kg/injection, schedule: Q04DX003 (ip), vehicle: saline with Tween-80
[4] = dose: 200.0 mg/kg/injection, schedule: Q04DX003 (ip), vehicle: saline with Tween-80
[5] = dose: 400.0 mg/kg/injection, schedule: Q04DX003 (ip), vehicle: saline with Tween-80
[6] = dose: 50.0 mg/kg/injection, schedule: Q01DX005 (ip), vehicle: Klucel (hydroxypropylcellulose) (HPC)
[7] = dose: 100.0 mg/kg/injection, schedule: Q01DX005 (ip), vehicle: Klucel (hydroxypropylcellulose) (HPC)
[8] = dose: 200.0 mg/kg/injection, schedule: Q01DX005 (ip), vehicle: Klucel (hydroxypropylcellulose) (HPC)
[9] = dose: 50.0 mg/kg/injection, schedule: Q01DX009 (ip), vehicle: saline with Tween-80
[10] = dose: 100.0 mg/kg/injection, schedule: Q01DX009 (ip), vehicle: saline with Tween-80
[11] = dose: 200.0 mg/kg/injection, schedule: Q01DX009 (ip), vehicle: saline with Tween-80
[12] = dose: 60.0 mg/kg/injection, schedule: Q01DX005 (ip), vehicle: saline with Tween-80
[13] = dose: 120.0 mg/kg/injection, schedule: Q01DX005 (ip), vehicle: saline with Tween-80
[14] = dose: 240.0 mg/kg/injection, schedule: Q01DX005 (ip), vehicle: saline with Tween-80
[15] = dose: 5.0 mg/kg/injection, schedule: Q01DX009 (ip), vehicle: saline
[16] = dose: 10.0 mg/kg/injection, schedule: Q01DX009 (ip), vehicle: saline
[17] = dose: 30.0 mg/kg/injection, schedule: Q01DX005 (ip), vehicle: saline with Tween-80
[18] = dose: 100.0 mg/kg/injection, schedule: Q01DX009 (ip), vehicle: Klucel (hydroxypropylcellulose) (HPC)
[19] = dose: 60.0 mg/kg/injection, schedule: Q01DX005 (ip), vehicle: Klucel (hydroxypropylcellulose) (HPC)
[20] = dose: 120.0 mg/kg/injection, schedule: Q01DX005 (ip), vehicle: Klucel (hydroxypropylcellulose) (HPC)

## COC(=O)c1ccc(COc2ccc([N+](=O)[O-])cc2Cl)cc1
[1]
  T/C: 100 % of control
[2]
  T/C: 104 % of control
[3]
  T/C: 105 % of control
dose: 200.0 mg/kg/injection, schedule: Q01DX005 (ip), vehicle: saline with Tween-80
  T/C: 104 % of control
[4]
  T/C: 105 % of control
[5]
  T/C: 103 % of control

## COC(=O)NP1(=O)NCc2ccccc2CN1
[6]
  T/C: 100 % of control
[7]
  T/C: 94 % of control
[8]
  T/C: 94 % of control

## O=C(O)c1ccc([N+](=O)[O-])cc1O.O=C(O)c1ccc([N+](=O)[O-])cc1O.[Cu]
dose: 6.25 mg/kg/injection, schedule: Q01DX001 (ip), vehicle: saline with Tween-80
  T/C: 100 % of control
dose: 12.5 mg/kg/injection, schedule: Q01DX001 (ip), vehicle: saline with Tween-80
  T/C: 103 % of control
dose: 25.0 mg/kg/injection, schedule: Q01DX001 (ip), vehicle: saline with Tween-80
  T/C: 97 % of control

## Cc1ccc2oc3c(=O)c4ccccc4c(=O)c=3oc2c1
[3]
  T/C: 90 % of control
[4]
  T/C: 89 % of control
[5]
  T/C: 90 % of control

## O=c1c2ccccc2nc2n1CCC/C2=C\c1ccc(Cl)cc1
dose: 92.5 mg/kg/injection, schedule: Q04DX002 (ip), vehicle: Klucel (hydroxypropylcellulose) (HPC)
  T/C: 97 % of control
dose: 185.0 mg/kg/injection, schedule: Q04DX002 (ip), vehicle: Klucel (hydroxypropylcellulose) (HPC)
  T/C: 105 % of control
dose: 370.0 mg/kg/injection, schedule: Q04DX002 (ip), vehicle: Klucel (hydroxypropylcellulose) (HPC)
  T/C: 97 % of control

## CC(F)C(C)C(N)C(=O)O (centres undefined)
[9]
  T/C: 86 % of control
[10]
  T/C: 91 % of control
[11]
  T/C: 99 % of control

## N#CCC(=O)N/N=C(\CC1(O)C(=O)Nc2c(Cl)cc(Cl)cc21)c1cccc2ccccc12 (centres undefined)
dose: 12.5 mg/kg/injection, schedule: Q01DX005 (ip), vehicle: saline with Tween-80
  T/C: 90 % of control
dose: 25.0 mg/kg/injection, schedule: Q01DX005 (ip), vehicle: saline with Tween-80
  T/C: 89 % of control
[1]
  T/C: 88 % of control
[2]
  T/C: 88 % of control

## NC(=S)N/N=C\C=N\Nc1ccccc1
dose: 100.0 mg/kg/injection, schedule: Q04DX003 (ip), vehicle: Klucel (hydroxypropylcellulose) (HPC)
  T/C: 100 % of control
dose: 200.0 mg/kg/injection, schedule: Q04DX003 (ip), vehicle: Klucel (hydroxypropylcellulose) (HPC)
  T/C: 100 % of control

## O=[N+]([O-])C1C(O)CSCC1O (centres undefined)
dose: 100.0 mg/kg/injection, schedule: Q01DX001 (ip), vehicle: saline with Tween-80
  T/C: 104 % of control
dose: 200.0 mg/kg/injection, schedule: Q01DX001 (ip), vehicle: saline with Tween-80
  T/C: 104 % of control
dose: 400.0 mg/kg/injection, schedule: Q01DX001 (ip), vehicle: saline with Tween-80
  T/C: 107 % of control

## O=C([O-])c1cc(Br)cc(Br)c1[OH2+].O=C([O-])c1cc(Br)cc(Br)c1[OH2+].[Mn+2]
[12]
  T/C: 109 % of control
[13]
  T/C: 115 % of control

## COc1cc(C(=O)CC(=O)Cc2ccc3ccccc3n2)cc(OC)c1OC
dose: 0.93 mg/kg/injection, schedule: Q01DX005 (ip), vehicle: saline with Tween-80
  T/C: 102 % of control
dose: 1.88 mg/kg/injection, schedule: Q01DX005 (ip), vehicle: saline with Tween-80
  T/C: 103 % of control
dose: 3.75 mg/kg/injection, schedule: Q01DX005 (ip), vehicle: saline with Tween-80
  T/C: 98 % of control
[13]
  T/C: 90 % of control
[14]
  T/C: 97 % of control

## O=C(NC(Cc1ccccc1)C(=O)O)OCC1c2ccccc2-c2ccccc21 (centres undefined)
[6]
  T/C: 108 % of control
[7]
  T/C: 105 % of control

## CC(=O)OC1C(O)C(C)OC(OC2C(OC(=O)C3CCC4C(C3)OC3(CC(OC(=O)/C=C/c5ccccc5)C(C)CO3)C43CO3)OC(CO)C(O)C2OC(C)=O)C1O (centres undefined)
dose: 1.5 mg/kg/injection, schedule: Q01DX009 (ip), vehicle: saline + alcohol
  T/C: 106 % of control
dose: 3.0 mg/kg/injection, schedule: Q01DX009 (ip), vehicle: saline + alcohol
  T/C: 106 % of control and 116 % of control

## O=C(CCCl)N/N=C/c1ccccc1
dose: 2.5 mg/kg/injection, schedule: Q01DX009 (ip), vehicle: saline
  T/C: 104 % of control
[15]
  T/C: 98 % of control and 101 % of control
[16]
  T/C: 114 % of control and 115 % of control

## Cc1cccc(N2C(=O)C=C(NCc3nc4ccccc4[nH]3)C2c2ccccc2)c1 (centres undefined)
[6]
  T/C: 104 % of control
[7]
  T/C: 100 % of control
[8]
  T/C: 100 % of control

## NC(=S)N/N=C\C12CC3CC(CC(C3)C1)C2
[9]
  T/C: 96 % of control
[10]
  T/C: 108 % of control

## COc1cc(C2c3cc4c(cc3OC(O)C2C)OCO4)cc(OC)c1OC (centres undefined)
dose: 15.0 mg/kg/injection, schedule: Q01DX005 (ip), vehicle: saline with Tween-80
  T/C: 99 % of control
[17]
  T/C: 101 % of control
[12]
  T/C: 99 % of control and 112 % of control
[13]
  T/C: 117 % of control

## Cc1oc2ccccc2c(=O)c1CN1CCN(c2ccccc2)CC1
dose: 60.0 mg/kg/injection, schedule: Q01DX005 (ip), vehicle: saline
  T/C: 103 % of control
dose: 120.0 mg/kg/injection, schedule: Q01DX005 (ip), vehicle: saline
  T/C: 101 % of control
dose: 240.0 mg/kg/injection, schedule: Q01DX005 (ip), vehicle: saline
  T/C: 92 % of control

## CC1CC(c2ccc(Cl)cc2)C(c2ccc(Cl)cc2)C(=O)O1 (centres undefined)
[18]
  T/C: 90 % of control

## CCC1CN2C(=N1)c1ccccc1-c1cc(Cl)ccc12 (centres undefined)
[15]
  T/C: 106 % of control
dose: 6.25 mg/kg/injection, schedule: Q01DX009 (ip), vehicle: saline
  T/C: 101 % of control and 102 % of control and 90 % of control
[16]
  T/C: 121 % of control and 124 % of control
dose: 12.5 mg/kg/injection, schedule: Q01DX009 (ip), vehicle: saline
  T/C: 103 % of control and 106 % of control and 97 % of control
dose: 20.0 mg/kg/injection, schedule: Q01DX009 (ip), vehicle: saline
  T/C: 117 % of control
dose: 25.0 mg/kg/injection, schedule: Q01DX009 (ip), vehicle: saline
  T/C: 101 % of control (2×) and 108 % of control
dose: 40.0 mg/kg/injection, schedule: Q01DX009 (ip), vehicle: saline
  T/C: 156 % of control
dose: 50.0 mg/kg/injection, schedule: Q01DX009 (ip), vehicle: saline
  T/C: 103 % of control and 123 % of control and 94 % of control

## C/C(=N/N)c1ccc(Br)cc1
dose: 6.25 mg/kg/injection, schedule: Q01DX009 (ip), vehicle: saline with Tween-80
  T/C: 100 % of control
dose: 12.5 mg/kg/injection, schedule: Q01DX009 (ip), vehicle: saline with Tween-80
  T/C: 104 % of control

## NCCn1[nH]c(=O)c2cnccc2c1=O
[12]
  T/C: 95 % of control
[13]
  T/C: 100 % of control
[14]
  T/C: 95 % of control

## COC(=O)C(=O)c1c(-c2ccc(Cl)c(Cl)c2)[nH]c2[nH]n(-c3ccccc3)c(=O)c2c1=O
[12]
  T/C: 94 % of control
[13]
  T/C: 88 % of control
[14]
  T/C: 88 % of control

## O=C1C2=C(Nc3cc([N+](=O)[O-])ccc3N2)OC1c1c2ccccc2cc2ccccc12 (centres undefined)
[19]
  T/C: 94 % of control
[20]
  T/C: 88 % of control

## CCn1c(=O)c2n[nH]nc2n(CCO)c1=O
dose: 50.0 mg/kg/injection, schedule: Q01DX009 (ip), vehicle: Klucel (hydroxypropylcellulose) (HPC)
  T/C: 97 % of control
[18]
  T/C: 100 % of control

## N#C/C(=C(/N)N1CCOCC1)N1CCOCC1
[19]
  T/C: 100 % of control
[20]
  T/C: 95 % of control
dose: 240.0 mg/kg/injection, schedule: Q01DX005 (ip), vehicle: Klucel (hydroxypropylcellulose) (HPC)
  T/C: 98 % of control

## c1ccc([P+](Cc2ccc(C[P+](c3ccccc3)(c3ccccc3)c3ccccc3)cc2)(c2ccccc2)c2ccccc2)cc1
dose: 0.07 mg/kg/injection, schedule: Q01DX009 (ip), vehicle: saline sonified
  T/C: 90 % of control
dose: 0.15 mg/kg/injection, schedule: Q01DX009 (ip), vehicle: saline sonified
  T/C: 95 % of control
dose: 0.3 mg/kg/injection, schedule: Q01DX009 (ip), vehicle: saline sonified
  T/C: 90 % of control
dose: 0.6 mg/kg/injection, schedule: Q01DX009 (ip), vehicle: saline sonified
  T/C: 100 % of control

## CCC[n+]1ccc(/C=N\NC(N)=S)c2ccccc21
[9]
  T/C: 110 % of control
[10]
  T/C: 121 % of control
[11]
  T/C: 112 % of control

## Cc1ccnc(NC(=O)Nc2cc(F)ccc2F)c1
[17]
  T/C: 87 % of control
[12]
  T/C: 87 % of control and 89 % of control
[13]
  T/C: 101 % of control
[14]
  T/C: 87 % of control

## CC1(C)CC(=O)c2c(oc3ccc(O)cc23)C1
[6]
  T/C: 97 % of control
[7]
  T/C: 97 % of control
[8]
  T/C: 92 % of control
